In general, EC50 refers to the concentration at which the effect is half-maximal. What is called IC50 is the point on the concentration scale where inhibition reaches its midpoint.

Each structure is given as a SMILES string. Read-outs that look alike come from different tables or passages of the source.

EC50 and IC50 data for 31 molecules are collected here from patent US20100075965A1, “PI3 KINASE INHIBITORS AND METHODS OF THEIR USE” (Novartis AG, priority 2006, published 2010).

Assay [1] relates to A2780 cells. The assay can be described thus: Viability assay in A2780 (Cell Titer Glo). It counts as cell-based, human. To be noted: Homo sapiens, A2780 cells, read-out: A2780 Cell prolif. EC50. An outline of the steps: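 A2780 cells (1,000/well, DMEM + 10% FBS) were exposed to 3-fold serial dilutions of compound for 72 hrs at 37° C, 5% CO2. Viable cells were read by Cell Titer Glo luminescence, in duplicate, and EC50 values were derived from the curves.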
For orientation: Cellular ATP, detected with luciferase, serves as a proxy for viable cell number.

In assay [2] the target is PI3 K Alpha (Homo sapiens, UniProt P42336). The assay can be described thus: PI3 kinase phosphorylation assays (homogenous solution phase, one step solid phase, ATP depletion/KinaseGlo). It counts as biochemical.
PI3 K Alpha, sequence (P42336 whole entry): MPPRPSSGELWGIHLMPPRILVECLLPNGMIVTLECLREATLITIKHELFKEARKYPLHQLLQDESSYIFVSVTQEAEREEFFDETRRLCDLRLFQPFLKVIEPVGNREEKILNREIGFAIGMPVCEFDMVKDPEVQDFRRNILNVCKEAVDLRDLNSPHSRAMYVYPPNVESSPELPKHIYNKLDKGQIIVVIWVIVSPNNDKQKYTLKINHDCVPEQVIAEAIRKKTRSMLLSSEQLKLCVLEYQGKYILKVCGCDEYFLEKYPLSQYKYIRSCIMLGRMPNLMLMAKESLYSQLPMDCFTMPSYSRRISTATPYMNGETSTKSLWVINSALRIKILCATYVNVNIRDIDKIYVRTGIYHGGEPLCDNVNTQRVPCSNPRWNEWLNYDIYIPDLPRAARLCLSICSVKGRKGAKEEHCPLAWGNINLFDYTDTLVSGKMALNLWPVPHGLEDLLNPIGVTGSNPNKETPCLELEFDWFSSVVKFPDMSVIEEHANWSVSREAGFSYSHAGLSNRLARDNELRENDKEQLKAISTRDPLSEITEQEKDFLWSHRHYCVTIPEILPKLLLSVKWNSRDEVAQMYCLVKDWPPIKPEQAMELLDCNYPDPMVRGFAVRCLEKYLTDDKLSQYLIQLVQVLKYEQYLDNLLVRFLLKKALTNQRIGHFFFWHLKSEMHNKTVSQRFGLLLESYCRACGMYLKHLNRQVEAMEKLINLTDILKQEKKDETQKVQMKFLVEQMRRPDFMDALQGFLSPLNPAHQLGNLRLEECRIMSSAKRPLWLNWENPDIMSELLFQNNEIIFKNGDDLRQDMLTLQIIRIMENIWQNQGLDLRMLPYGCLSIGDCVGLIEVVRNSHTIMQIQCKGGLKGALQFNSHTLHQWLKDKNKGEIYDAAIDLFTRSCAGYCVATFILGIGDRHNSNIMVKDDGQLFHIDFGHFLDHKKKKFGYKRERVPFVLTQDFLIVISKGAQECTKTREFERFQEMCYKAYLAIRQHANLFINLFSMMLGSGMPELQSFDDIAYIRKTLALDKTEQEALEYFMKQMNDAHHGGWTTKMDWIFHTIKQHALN
PI3 K Alpha, sequence (P27986 whole entry partner): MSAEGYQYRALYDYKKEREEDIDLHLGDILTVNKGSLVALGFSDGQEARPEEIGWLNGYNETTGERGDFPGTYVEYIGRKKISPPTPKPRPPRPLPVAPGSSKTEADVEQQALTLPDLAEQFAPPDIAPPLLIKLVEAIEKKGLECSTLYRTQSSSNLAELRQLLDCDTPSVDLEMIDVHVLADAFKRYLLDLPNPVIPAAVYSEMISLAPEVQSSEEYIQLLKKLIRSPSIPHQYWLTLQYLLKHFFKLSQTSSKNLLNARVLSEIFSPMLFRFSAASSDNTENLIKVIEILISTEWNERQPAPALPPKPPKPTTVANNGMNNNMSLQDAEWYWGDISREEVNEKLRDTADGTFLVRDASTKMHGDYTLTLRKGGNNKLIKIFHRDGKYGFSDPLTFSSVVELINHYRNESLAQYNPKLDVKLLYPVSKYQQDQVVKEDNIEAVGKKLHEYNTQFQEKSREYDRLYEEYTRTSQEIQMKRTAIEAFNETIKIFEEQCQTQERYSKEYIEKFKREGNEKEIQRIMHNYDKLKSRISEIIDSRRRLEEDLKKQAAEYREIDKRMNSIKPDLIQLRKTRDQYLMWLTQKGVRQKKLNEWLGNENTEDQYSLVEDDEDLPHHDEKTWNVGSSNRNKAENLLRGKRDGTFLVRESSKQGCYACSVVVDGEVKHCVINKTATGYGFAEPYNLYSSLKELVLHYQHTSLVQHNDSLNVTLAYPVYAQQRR
Setting [3] is: ATP depletion assay, read-out: PI3 K Alpha IC50.

For `CC(=O)Nc1cn2cc(-c3ccc(N)nc3F)ccc2n1` [Example 210, N-(6-(6-amino-2-fluoropyridin-3-yl)imidazo[1,2-a]pyridin-2-yl)acetamide], the EC50 in assay [1] is less than 10 µM. Further, the concentration for half-maximal inhibition (IC50) in assay [2] (read-out: PI3K Alpha IC50) is less than 1000 nM.

Regarding `CC(=O)Nc1cn2nc(-c3cnc(N)cc3C(F)(F)F)ccc2n1` [Example 24, N-[6-(6-Amino-4-trifluoromethyl-pyridin-3-yl)-imidazo[1,2-b]pyridazin-2-yl]-acetamide], in assay [1], the 50% effective concentration (EC50) is less than 25 µM. The 50% inhibitory concentration (IC50) in assay [2] (read-out: PI3K Alpha IC50) was less than 1000 nM.

As to `CC(C)(C)OC(=O)N1CCC(OCC(=O)Nc2cn3cc(-c4cnc(N)c(C(F)(F)F)c4)ccc3n2)CC1` [Example 251, tert-butyl 4-(2-(6-(6-amino-5-(trifluoromethyl)pyridin-3-yl)imidazo[1,2-a]pyridin-2-ylamino)-2-oxoethoxy) piperidine-1-carboxylate], in assay [1], the EC50 was less than 10 µM. In addition, the IC50 in assay [2] (read-out: PI3K Alpha IC50) is less than 1000 nM.

With `CC(=O)Nc1nc2ccc(-c3cnc(N)c(C(F)(F)F)c3)cn2c1C#CCNC(=O)OC(C)(C)C` [Example 247, tert-butyl 3-(2-acetamido-6-(6-amino-5-(trifluoromethyl)pyridin-3-yl)imidazo[1,2-a]pyridin-3-yl)prop-2-ynylcarbamate], in assay [1], the EC50 is less than 10 µM. For the same molecule, in assay [2] (read-out: PI3K Alpha IC50), the IC50 was less than 1000 nM.

`CC(=O)Nc1cn2cc(-c3cnc(N)c(C)n3)ccc2n1` [Example 226, N-(6-(5-amino-6-methylpyrazin-2-yl)imidazo[1,2-a]pyridin-2-yl)acetamide]: the half-maximal effective concentration (EC50) in assay [1] was less than 10 µM. Moreover, the IC50 in assay [2] (read-out: PI3K Alpha IC50) was less than 1000 nM.

Consider `CC(=O)Nc1cn2nc(-c3cnc(N)c(N4CCOCC4)n3)ccc2n1` [Example 176, N-(6-(5-amino-6-morpholino-pyrazin-2-yl)imidazo[1,2-b]pyridazin-2-yl)acetamide], for which the EC50 in assay [1] is less than 25 µM. For the same molecule, the IC50 in assay [2] (read-out: PI3K Alpha IC50) is less than 1000 nM.

Regarding `CCN1CCC(OCC(=O)Nc2cn3cc(-c4cnc(N)c(C(F)(F)F)c4)ccc3n2)CC1` [Example 221, N-(6-(6-amino-5-(trifluoromethyl)yl)imidazo[1,2-a]pyridin-2-yl)-2-(1-ethylpiperidin-4-yloxy)acetamide], the 50% effective concentration (EC50) in assay [1] was less than 10 µM. In assay [2] (read-out: PI3K Alpha IC50), the IC50 is less than 1000 nM.

For the molecule `CCN(CC)Cc1cc(-c2ccc3nc(NC(C)=O)cn3c2)cnc1N` [Example 181, N-(6-(6-amino-5-((diethylamino)methyl)pyridin-3-yl)imidazo[1,2-a]pyridin-2-yl)acetamide], the EC50 in assay [1] is less than 25 µM. Moreover, the IC50 in assay [2] (read-out: PI3K Alpha IC50) was less than 1000 nM.

Regarding `Nc1ncc(-c2ccc3nc(NC(=O)N4CCCC4c4ccccn4)cn3c2)cc1C(F)(F)F` (centres unmarked) [Example 175, N-(6-(6-amino-5-(trifluoromethyl)pyridin-3-yl)imidazo[1,2-a]pyridin-2-yl)-2-(pyridin-2-yl)pyrrolidine-1-carboxamide], the EC50 in assay [1] is less than 25 µM. For the same molecule, the IC50 in assay [2] (read-out: PI3K Alpha IC50) was less than 1000 nM.

Take `CC(C)(C)OC(=O)NCCC(=O)Nc1cn2nc(-c3cnc(N)c(C(F)(F)F)c3)ccc2n1` [Example 231, tert-butyl 3-(6-(6-amino-5-(trifluoromethyl)pyridin-3-yl)imidazo[1,2-b]pyridazin-2-ylamino)-3-oxopropyl-carbamate]: the EC50 in assay [1] was less than 10 µM. In addition, the IC50 in assay [2] (read-out: PI3K Alpha IC50) is less than 1000 nM.

On to `Nc1ncc(-c2ccc3nc(NC(=O)[C@@H]4CCN4)cn3c2)cc1C(F)(F)F` [Example 228, (S)-N-(6-(6-amino-5-(trifluoromethyl)pyridin-3-yl)imidazo[1,2-a]pyridin-2-yl)azetidine-2-carboxamide], for which the EC50 in assay [1] was less than 10 µM. For the same molecule, the IC50 in assay [2] (read-out: PI3K Alpha IC50) is less than 1000 nM.

On to `CC(=O)Nc1cn2cc(-c3cnc(N)c(OC4CCN(C)CC4)n3)ccc2n1` [Example 40, N-(6-(5-amino-6-(1-methylpiperidin-4-yloxy)pyrazin-2-yl)imidazo[1,2-a]pyridin-2-yl)acetamide], for which, in assay [1], the EC50 was less than 25 µM. In addition, the IC50 in assay [2] (read-out: PI3K Alpha IC50) was less than 10000 nM.

For the molecule `CC(=O)Nc1cn2cc(-c3cnc(N)c(C(=O)N4CCN(C(=O)OC(C)(C)C)CC4)c3)ccc2n1` [Example 152, tert-butyl 4-(5-(2-acetamido-imidazo[1,2-a]pyridin-6-yl)-2-aminonicotinoyl) piperazine-1-carboxylate], the EC50 in assay [1] is less than 25 µM. Further, the IC50 in assay [2] (read-out: PI3K Alpha IC50) is less than 1000 nM.

In the case of `NC(=O)N1CC[C@H]1C(=O)Nc1cn2cc(-c3cnc(N)c(C(F)(F)F)c3)ccc2n1` [Example 148, (S)-N2-(6-(6-amino-5-(trifluoromethyl)pyridin-3-yl)imidazo[1,2-a]pyridin-2-yl)azetidine-1,2-dicarboxamide], the EC50 in assay [1] is less than 25 µM. Further, the IC50 in assay [2] (read-out: PI3K Alpha IC50) was less than 1000 nM.

Turning to `CCN1CC[C@@H](OCC(=O)Nc2cn3cc(-c4cnc(N)c(C(F)(F)F)c4)ccc3n2)C1` [Example 227, (R)-N-(6-(6-amino-5-(trifluoromethyl)pyridin-3-yl)imidazo[1,2-a]pyridin-2-yl)-2-(1-ethylpyrrolidn-3-yloxy)acetamide], in assay [1], the half-maximal effective concentration (EC50) was less than 10 µM. In assay [2] (read-out: PI3K Alpha IC50), the IC50 was less than 1000 nM.

For `CC(C)(C)OC(=O)N1CCCCC1CCC(=O)Nc1cn2nc(-c3cnc(N)c(C(F)(F)F)c3)ccc2n1` (centres unmarked) [Example 250, tert-butyl 2-(3-(6-(6-amino-5-(trifluoromethyl)pyridin-3-yl)imidazo[1,2-b]pyridazin-2-ylamino)-3-oxopropyl) piperidine-1-carboxylate], the EC50 in assay [1] is less than 10 µM. Moreover, the IC50 in assay [2] (read-out: PI3K Alpha IC50) is less than 1000 nM.

For `CC(=O)Nc1cn2cc(-c3cnc(N)c(C(F)(F)F)c3)c(F)cc2n1` [Example 171, N-(6-(6-amino-5-(trifluoromethyl)pyridin-3-yl)-7-fluoroimidazo [1,2-a]pyridin-2-yl)acetamide], the EC50 in assay [1] was less than 25 µM. In assay [2] (read-out: PI3K Alpha IC50), the IC50 was less than 1000 nM.

As for `CCN(CC)CCOc1cc(-c2ccc3nc(NC(C)=O)cn3c2)cnc1N` [Example 42, N-(6-(6-amino-5-(2-(diethylamino)ethoxy)pyridin-3-yl)imidazo[1,2-a]pyridin-2-yl)acetamide], in assay [1], the half-maximal effective concentration (EC50) was less than 25 µM. For the same molecule, the half-maximal inhibitory concentration (IC50) in assay [2] (read-out: PI3K Alpha IC50) is less than 10000 nM.

With `Nc1ncc(-c2ccc3nc(NC(=O)C(F)(F)F)cn3c2O)cc1C(F)(F)F` [Example 41], the EC50 in assay [1] is less than 25 µM. In addition, in assay [2] (read-out: PI3K Alpha IC50), the half-maximal inhibitory concentration (IC50) was less than 10000 nM.

Take `CC(=O)Nc1nc2cc(F)c(-c3cnc(N)c(C(F)(F)F)c3)cc2s1` [Example 2-29, N-[6-(6-Amino-5-trifluoromethyl-pyridin-3-yl)-5-fluoro-benzothiazol-2-yl]-acetamide]: the EC50 in assay [1] (72 hrs) is less than 25 µM. For the same molecule, the IC50 in assay [2] (setting [3]) is less than 1000 nM.

Turning to `CC(=O)Nc1nc2cc(C)c(-c3cnc(N)c(C(F)(F)F)c3)cc2s1` [Example 2-28, N-[6-(6-Amino-5-trifluoromethyl-pyridin-3-yl)-5-methyl-benzothiazol-2-yl]-acetamide], the EC50 in assay [1] (72 hrs) was less than 25 µM. Also, the IC50 in assay [2] (setting [3]) was less than 1000 nM.

Take `Nc1ncc(-c2ccc3nc(NC(=O)CN4CCCCC4)cn3c2)nc1OCC(F)(F)F` [Example 109, N-(6-(5-amino-6-(2,2,2-trifluoroethoxy)pyrazin-2-yl)imidazo[1,2-a]pyridin-2-yl)-2-(piperidin-1-yl)acetamide]: the EC50 in assay [1] was less than 1 µM. In assay [2] (read-out: PI3K Alpha IC50), the IC50 is less than 1000 nM.

Turning to `CC(=O)Nc1cn2nc(-c3cnc(N)c(C(=O)NCCN4CCCC4)c3)ccc2n1` [Example 211, 5-(2-acetamido-imidazo[1,2-b]pyridazin-6-yl)-2-amino-N-(2-(pyrrolidin-1-yl)ethyl) nicotinamide], in assay [1], the EC50 is less than 10 µM. For the same molecule, the IC50 in assay [2] (read-out: PI3K Alpha IC50) is less than 1000 nM.

`Nc1ncc(-c2ccc3nc(NC(=O)C4CCN4)cn3n2)cc1C(F)(F)F` (centres unmarked) [Example 189]: in assay [1], the EC50 was less than 10 µM. Also, the half-maximal inhibitory concentration (IC50) in assay [2] (read-out: PI3K Alpha IC50) is less than 1000 nM.

On to `NC(=O)N1CCC[C@H]1C(=O)Nc1cn2cc(-c3cnc(N)c(C(F)(F)F)c3)ccc2n1` [Example 46, (S)-N2-(6-(6-amino-5-(trifluoromethyl)pyridin-3-yl)imidazo[1,2-a]pyridin-2-yl)pyrrolidine-1,2-dicarboxamide], for which the EC50 in assay [1] was less than 10 µM. Moreover, in assay [2] (read-out: PI3K Alpha IC50), the IC50 is less than 10000 nM.

Consider `CC(=O)Nc1cn2cc(-c3cnc(N)c(-c4ccc(F)cc4)c3)ccc2n1` [Example 183, N-(6-(6-amino-5-(4-fluorophenyl)pyridin-3-yl)imidazo[1,2-a]pyridin-2-yl)acetamide], for which, in assay [1], the EC50 was less than 25 µM. Besides, the IC50 in assay [2] (read-out: PI3K Alpha IC50) is less than 1000 nM.

`CC(=O)Nc1cn2cc(-c3cnc(N)c(Oc4ccc(N5CCN(C(C)=O)CC5)cc4)n3)ccc2n1` [Example 222, N-(6-(6-(4-(4-acetylpiperazin-1-yl)phenoxy)-5-aminopyrazin-2-yl)imidazo[1,2-a]pyridin-2-yl)acetamide]: the concentration for a half-maximal effect (EC50) in assay [1] is less than 10 µM. The IC50 in assay [2] (read-out: PI3K Alpha IC50) was less than 1000 nM.

In the case of `Cc1ccc(C2CCCN2C(=O)Nc2cn3cc(-c4cnc(N)c(C(F)(F)F)c4)ccc3n2)s1` (centres unmarked) [Example 180, N-(6-(6-amino-5-(trifluoromethyl)pyridin-3-yl)imidazo[1,2-a]pyridin-2-yl)-2-(5-methyithiophen-2-yl)pyrrolidine-1-carboxamide], the 50% effective concentration (EC50) in assay [1] was less than 25 µM. Moreover, the IC50 in assay [2] (read-out: PI3K Alpha IC50) was less than 1000 nM.

With `CCOCC(=O)Nc1cn2cc(-c3cnc(N)c(C(F)(F)F)c3)ccc2n1` [Example 199, N-(6-(6-amino-5-(trifluoromethyl)pyridin-3-yl)imidazo[1,2-a]pyridin-2-yl)-2-ethoxyacetamide], the EC50 in assay [1] was less than 10 µM. The IC50 in assay [2] (read-out: PI3K Alpha IC50) is less than 1000 nM.

As for `Nc1ncc(-c2ccc3nc(NC(=O)[C@@H]4CCCCN4Cc4ccccc4)cn3c2)cc1C(F)(F)F` [Example 233], the EC50 in assay [1] is less than 10 µM. Moreover, the IC50 in assay [2] (read-out: PI3K Alpha IC50) is less than 1000 nM.

Turning to `Nc1ncc(-c2ccc3nc(NC(=O)N4CC[C@H](O)C4)cn3c2)cc1C(F)(F)F` [Example 224, (S)-N-(6-(6-amino-5-(trifluoromethyl)pyridin-3-yl)imidazo[1,2-a]pyridin-2-yl)-3-hydroxy-pyrrolidine-1-carboxamide], the EC50 in assay [1] was less than 10 µM. Further, the IC50 in assay [2] (read-out: PI3K Alpha IC50) is less than 1000 nM.
